Source: patent publication US9764002B2, “Dosage regimen for therapeutic method” (MADELEINE PHARMACEUTICALS PTY LTD, priority 2013, dated 2017)
Peptide text beside a SMILES is read from it.

Columns and labels:
[1] = human, in vivo
Protocol: In our clinical studies, lead patients were dosed at 900 μg/h for 6 hours based on the standard calculation shown earlier to reach a target steady state blood plasma concentration of 10 ng/ml and plasma levels of VSDL measured. Six hours is more than five half-lives for VSDL and, as such, should result in a steady state blood plasma concentration. Having verified the target steady state blood plasma concentration from lead patients, then Cohort 1 “Part 1” received 900 μg/h for 12 hours so as to achieve target steady state blood plasma concentration. However, the target steady state blood plasma concentration was not observed and as such the dosing regime required modification. After significant postulation and modelling of the hypothetical behaviour of VSDL, the multimodal dosage regime was developed. Cohort 1 “Part 2” was introduced using the bimodal dosing regime in an effort to reach a steady state blood plasma concentration of 10 ng/ml. Cohort 1 “Part 2” patients received VSDL at 900 μg/h (ie initial dosage rate) for 5 hours (ie initial period), followed by 550 μg/h for 7 hours (ie maintenance dosage rate).

[2] = human, in vivo; remark: listed apart in the source
clinical = conditions: human, in vivo
Protocol: A cohort of 10 subjects with stable CHF and undergoing standard of care treatment was treated with the formulation as follows: • i) 2 sentinel subjects were treated with a one stage 6 hour sc infusion of VSDL at 900 μg/h (Subjects 1 and 3) • ii) 5 subjects were treated with a one stage 12 hour sc infusion of VSDL at 900 μg/h (Subjects 102, 103, 104, 105 and 106); and • iii) 3 subjects were treated with a bimodal sc infusion of VSDL at 900 μg/h for 5 hours and then 550 μg/h for 7 hours (Subjects 111, 112 and 114). The dose regimen for this trial was designed using a pharmacokinetic model for VSDL based on prior data. The final model was used to simulate the median and 90% prediction intervals for 1000 patients given VSDL at 900 μg/h for 5 h then 550 μg/h for 7 h. This dose regimen targeted a population value of 10 ng/ml for the period 6-12 h after the start of the infusion. The predictions of the model were compared to observed VSDL concentration data from the three subjects referred to at iii) above. A model where infusion rate (ml/h) and delivered volume (ml) affected KA was an acceptable empirical description of the data. This model reproduced the observed increase in VSDL concentrations at the end of a subcutaneous infusion. The net effect was generally that KA increased with time during subcutaneous infusions. […] The final model had acceptable predictive performance based on the Visual Predictive Checks (allowing for low number of subjects).

Structure (SMILES): CC(C)C[C@H](NC(=O)[C@H](C)NC(=O)[C@H](C)NC(=O)CNC(=O)[C@H](C)NC(=O)[C@H](CCC(=O)O)NC(=O)[C@H](CCC(=O)O)NC(=O)[C@H](CC(N)=O)NC(=O)[C@@H]1CCCN1C(=O)[C@H](CCC(=O)O)NC(=O)[C@H](CO)NC(=O)[C@H](CC(C)C)NC(=O)[C@@H](NC(=O)[C@H](CCC(N)=O)NC(=O)[C@@H]1CCCN1C(=O)[C@@H]1CCCN1C(=O)[C@@H](NC(=O)[C@@H](NC(=O)[C@@H](N)CCC(=O)O)C(C)C)C(C)C)C(C)C)C(=O)N[C@@H](CO)C(=O)N1CCC[C@H]1C(=O)N[C@@H](CC(C)C)C(=O)N1CCC[C@H]1C(=O)N[C@@H](CCC(=O)O)C(=O)N[C@H](C(=O)N1CCC[C@H]1C(=O)N1CCC[C@H]1C(=O)N[C@@H](Cc1c[nH]c2ccccc12)C(=O)N[C@H](C(=O)NCC(=O)N[C@@H](CCC(=O)O)C(=O)N[C@H](C(=O)N[C@@H](CO)C(=O)N1CCC[C@H]1C(=O)N[C@@H](C)C(=O)N[C@@H](CCC(N)=O)C(=O)N[C@@H](CCCNC(=N)N)C(=O)O)C(C)C)[C@@H](C)O)C(C)C [VSDL] (H-EVVPPQVLSEPNEEAGAALSPLPEVPPWTGEVSPAQR-OH; N-terminus and C-terminus assumed)
- plasma concentration reached on continued increase beyond Css [1]: 30 ng/mL
- Css reached when the dose was doubled ([1]; sc): 20 ng/mL
- steady state blood plasma concentration of VSDL (Css) achieved ([1]; sc): 10 ng/mL
- symptomatic hypotension from blood pressure drops [2]: none of these resulted in symptomatic hypotension
- KA Absorption rate constant, Pop value (clinical): 0.265 h⁻¹
- KARATE Effect of infusion rate of KA, Pop value (clinical): −0.135
- KAVOL Effect of infusion volume on KA, Pop value (clinical): 0.222
- LGT1 Logit F value, Pop value (clinical): −1.05
- V Central volume, Pop value (clinical): 8.93 L
- influence of creatinine clearance (CCL) and body mass index (BMI) on VSDL elimination kinetics (clinical): minor
- clearance (clinical; CL Clearance, Pop value): 263 mL/min
- clearance (clinical; CL Maximum Elimination rate, Pop value): 447 mL/min
- V2 Multiplier of V for sc bolus, Pop value (clinical; sc): 1.596
- V3 Multiplier of V for sc infusion, Pop value (clinical; sc): 3.142
- bioavailability (clinical; sc, F Bioavailability, Pop value): 25.9%
